From ChEMBL document CHEMBL5625167, “In vitro bioevaluation and docking study of dihydrosphingosine and ethambutol analogues against sensitive and multi-drug resistant Mycobacterium tuberculosis” (Eur J Med Chem, 2023)
Converted amounts (≈) assume the structure as drawn. “And” between values parts separate entries of the source, which are not always exact repeats. Equal values may be shown once.

What was measured:
Type in all cases: functional
[1] = tested on: Mycobacterium tuberculosis; assay: Antimycobacterial activity against isoniazid, rifampicin, ethambutol, streptomycin and levofloxacin resistant Mycobacterium tuberculosis clinical isolate 1576 incubated for 7 days by resazurin dye based colorimetric method analysis; settings: Mycobacterium tuberculosis, 1576, 168 h; time 7 day
[2] = tested on: Mycobacterium tuberculosis; assay: Additive antimycobacterial activity against pre-extensively drug resistant Mycobacterium tuberculosis 1576 incubated for 7 days by resazurin dye based two-dimensional micro dilution checkerboard assay in presence of isoniazid; settings: time 7 day
[3] = tested on: Mycobacterium tuberculosis; assay: (§1) Additive antimycobacterial activity against pre-extensively drug resistant Mycobacterium tuberculosis 1576 assessed as fractional inhibitory concentration index incubated for 7 days by resazurin dye based two-dimensional micro dilution checkerboard assay in presence of amikacin; settings: time 7 day
[4] = tested on: Mycobacterium tuberculosis; assay: Antimycobacterial activity against pre-extensively drug resistant Mycobacterium tuberculosis 1576 assessed as reduction in CFU count at 8 uM in presence of rifampicin measured after 12 days relative to control; parameters: scale not given: the % may be the effect or the level left; settings: time 12 day
[5] = tested on: Mycobacterium tuberculosis; assay: as §1, with “Synergistic” for “Additive”, “reduction in” for “fractional inhibitory”, “required to inhibit bacterial growth” for “index”, “rifampicin relative to control” for “amikacin”; parameters: scale not given: the % may be the effect or the level left; settings: time 7 day
[6] = tested on: Mycobacterium tuberculosis; assay: Additive antimycobacterial activity against pre-extensively drug resistant Mycobacterium tuberculosis 1576 incubated for 7 days by resazurin dye based two-dimensional micro dilution checkerboard assay in presence of levofloxacin; settings: time 7 day
[7] = tested on: Mycobacterium tuberculosis; assay: Antimycobacterial activity against pre-extensively drug resistant Mycobacterium tuberculosis 1576 assessed as reduction in CFU count at 8 uM measured after 12 days relative to control; parameters: scale not given: the % may be the effect or the level left; settings: time 12 day
[8] = tested on: Mycobacterium tuberculosis; assay: Additive antimycobacterial activity against pre-extensively drug resistant Mycobacterium tuberculosis 1576 incubated for 7 days by resazurin dye based two-dimensional micro dilution checkerboard assay in presence of ethambutol; settings: time 7 day
[9] = tested on: Mycobacterium tuberculosis; assay: Additive antimycobacterial activity against pre-extensively drug resistant Mycobacterium tuberculosis 1576 assessed as fractional inhibitory concentration index incubated for 7 days by resazurin dye based two-dimensional micro dilution checkerboard assay in presence of ethambutol; settings: time 7 day
[10] = tested on: Mycobacterium tuberculosis; assay: Additive antimycobacterial activity against pre-extensively drug resistant Mycobacterium tuberculosis 1576 assessed as fractional inhibitory concentration index incubated for 7 days by resazurin dye based two-dimensional micro dilution checkerboard assay in presence of levofloxacin; settings: time 7 day
[11] = tested on: Mycobacterium tuberculosis; assay: Synergistic antimycobacterial activity against pre-extensively drug resistant Mycobacterium tuberculosis 1576 assessed as fractional inhibitory concentration index incubated for 7 days by resazurin dye based two-dimensional micro dilution checkerboard assay in presence of rifampicin; settings: time 7 day
[12] = tested on: Mycobacterium tuberculosis; assay: Additive antimycobacterial activity against pre-extensively drug resistant Mycobacterium tuberculosis 1576 assessed as fractional inhibitory concentration index incubated for 7 days by resazurin dye based two-dimensional micro dilution checkerboard assay in presence of isoniazid; settings: time 7 day
[13] = tested on: Mycobacterium tuberculosis; assay: Synergistic antimycobacterial activity against pre-extensively drug resistant Mycobacterium tuberculosis 1576 incubated for 7 days by resazurin dye based two-dimensional micro dilution checkerboard assay in presence of rifampicin; settings: time 7 day
[14] = tested on: Mycobacterium tuberculosis; assay: Additive antimycobacterial activity against pre-extensively drug resistant Mycobacterium tuberculosis 1576 incubated for 7 days by resazurin dye based two-dimensional micro dilution checkerboard assay in presence of amikacin; settings: time 7 day
[15] = tested on: Mycobacterium tuberculosis; assay: Antimycobacterial activity against pre-extensively drug resistant Mycobacterium tuberculosis 1576 assessed as fractional inhibitory concentration index incubated for 7 days by resazurin dye based two-dimensional micro dilution checkerboard assay in presence of rifampicin; settings: time 7 day
[16] = tested on: Mycobacterium tuberculosis; assay: Antimycobacterial activity against pre-extensively drug resistant Mycobacterium tuberculosis 1576 incubated for 7 days by resazurin dye based two-dimensional micro dilution checkerboard assay in presence of rifampicin; settings: time 7 day
[17] = tested on: Mycobacterium tuberculosis; assay: Additive antimycobacterial activity against pre-extensively drug resistant Mycobacterium tuberculosis 1576 assessed as fractional inhibitory concentration index incubated for 48 hrs by micro dilution checkerboard assay in presence of rifampicin
[18] = tested on: Mycobacterium tuberculosis; assay: Antimycobacterial activity against pre-extensively drug resistant Mycobacterium tuberculosis 1576 incubated for 7 days by resazurin dye based two-dimensional micro dilution checkerboard assay in presence of 1-((3,4,5-trimethoxybenzyl)oxy)heptadecan-2-amine; settings: time 7 day
[19] = tested on: Mycobacterium tuberculosis; assay: Antimycobacterial activity against pre-extensively drug resistant Mycobacterium tuberculosis 1576 incubated for 7 days by resazurin dye based two-dimensional micro dilution checkerboard assay in presence of 1-(benzyloxy)heptadecan-2-amine; settings: time 7 day
[20] = tested on: Mycobacterium tuberculosis; assay: Antimycobacterial activity against pre-extensively drug resistant Mycobacterium tuberculosis 1576 incubated for 7 days by resazurin dye based two-dimensional micro dilution checkerboard assay in presence of 2-aminoheptadecan-1-ol; settings: time 7 day

## CCCCCCCCCCCC(CO)NCC (configuration not stated)
[1]
  MIC: 64 µM (≈ 15.6 µg/mL)

## CCCCc1ccc(CCCCCCCCCC(N)CO)cc1 (configuration not stated)
[1]
  MIC: 2 µM (≈ 0.639 µg/mL)

## CCCCCCCCCCCCCCCCCC(N)CO (configuration not stated)
[1]
  MIC: 8 µM (≈ 2.4 µg/mL)

## CCCCc1ccc(CCCCCC(N)CO)cc1 (configuration not stated)
[1]
  MIC: 64 µM (≈ 16.9 µg/mL)

## CCCCc1ccc(CCCCCCCCCC(CO)NC(=O)OC(C)(C)C)cc1 (configuration not stated)
[1]
  MIC: 16 µM (≈ 6.71 µg/mL)

## CCCCCCCCCCCC(N)CO (configuration not stated)
[1]
  MIC: 32 µM (≈ 6.89 µg/mL)

## CCCCCCCCCCCCCCCCCCCC(CO)N(CC)CC (configuration not stated)
[1]
  MIC: > 64 µM

## CCCCCCCCCCCCCCCC(CNCCCCCC)NC(=O)OC(C)(C)C (configuration not stated)
[1]
  MIC: 8 µM (≈ 3.64 µg/mL)

## CCCCCCCCCCCCCCCC(N)CN (configuration not stated)
[1]
  MIC: 390 µM (≈ 105 µg/mL)

## CCCCCCCCCCCCCCCC(N)COCc1cc(OC)c(OC)c(OC)c1 (configuration not stated)
[1]
  MIC: 8 µM (≈ 3.61 µg/mL)
[2]
  FIC: 0.5
[3]
  fractional inhibitory concentration index (FICI): 0.75
[4]
  Activity: >=99.9%
[5]
  Activity: 75%
[6]
  FIC: 0.5
[7]
  Activity: >99.9%
[8]
  FIC: 0.5
[9]
  fractional inhibitory concentration index (FICI): 0.75
[10]
  fractional inhibitory concentration index (FICI): 1
[11]
  fractional inhibitory concentration index (FICI): 0.5
[12]
  fractional inhibitory concentration index (FICI): 1
[13]
  FIC: 0.25
[14]
  FIC: 0.5

## CCCCc1ccc(CCCCCC(CO)NC(=O)OC(C)(C)C)cc1 (configuration not stated)
[1]
  MIC: 16 µM (≈ 5.82 µg/mL)

## CCCCCCCCCCCCCCCCCC(N)COCc1ccccc1 (configuration not stated)
[1]
  MIC: 64 µM (≈ 24.9 µg/mL)

## CCCCCCCCCCCCCCCC(N)CO (configuration not stated)
[1]
  MIC: 3.03 µM (≈ 0.823 µg/mL)
[2]
  FIC: 0.5
[3]
  fractional inhibitory concentration index (FICI): 0.75
[6]
  FIC: 0.5
[8]
  FIC: 0.5
[9]
  fractional inhibitory concentration index (FICI): 0.75
[10]
  fractional inhibitory concentration index (FICI): 1
[12]
  fractional inhibitory concentration index (FICI): 0.63
[15]
  fractional inhibitory concentration index (FICI): 0.53
[16]
  FIC: 0.5
[14]
  FIC: 0.5
[17]
  fractional inhibitory concentration index (FICI): 0.53

## CCCCCCCCCCCCCCCCCCCC(CNCC)NC(=O)OC(C)(C)C (configuration not stated)
[1]
  MIC: 4 µM (≈ 1.82 µg/mL)

## CCCCCCCCCCCCCCCC(CO)NCCCCCC (configuration not stated)
[1]
  MIC: 64 µM (≈ 22.8 µg/mL)

## CCCCCCCCCCCC(CO)N(CC)CC (configuration not stated)
[1]
  MIC: 32 µM (≈ 8.69 µg/mL)

## CCCCc1ccc(CCCCCCCC(N)CO)cc1 (configuration not stated)
[1]
  MIC: 2 µM (≈ 0.583 µg/mL)

## CCCCCCCCCCCCCCCCCCCC(CN)NC(=O)OC(C)(C)C (configuration not stated)
[1]
  MIC: 64 µM (≈ 27.3 µg/mL)

## CCCCCCCCCCCCCCCC(CNCC)NC(=O)OC(C)(C)C (configuration not stated)
[1]
  MIC: 16 µM (≈ 6.38 µg/mL)

## CCCCCCCCCCCCCCCC(CO)N(CCCC)CCCC (configuration not stated)
[1]
  MIC: 8 µM (≈ 3.07 µg/mL)

## CCCCCCCCCCCCCCCCCCCC(N)COCc1ccccc1 (configuration not stated)
[1]
  MIC: 32 µM (≈ 13.4 µg/mL)

## CCCCCCCCCCCCCCCC(CO)N(CC)CC (configuration not stated)
[1]
  MIC: 32 µM (≈ 10.5 µg/mL)

## CCCCCCCCCCCCCCCC(N)COCc1ccccc1 (configuration not stated)
[1]
  MIC: 4.5 µM (≈ 1.63 µg/mL)
[2]
  FIC: 0.5
[3]
  fractional inhibitory concentration index (FICI): 0.63
[6]
  FIC: 0.5
[8]
  FIC: 0.5
[9]
  fractional inhibitory concentration index (FICI): 1.5
[10]
  fractional inhibitory concentration index (FICI): 1
[12]
  fractional inhibitory concentration index (FICI): 0.63
[15]
  fractional inhibitory concentration index (FICI): 0.56
[16]
  FIC: 0.5
[14]
  FIC: 0.5
[17]
  fractional inhibitory concentration index (FICI): 0.56

## CCCCCCCCCCCCCCCCCC(CN)NC(=O)OC(C)(C)C (configuration not stated)
[1]
  MIC: 16 µM (≈ 6.38 µg/mL)

## CCCCCCCCCCCC(CO)NCCCC (configuration not stated)
[1]
  MIC: 32 µM (≈ 8.69 µg/mL)

## CCCCCCCCCCCC(CNCC)NC(=O)OC(C)(C)C (configuration not stated)
[1]
  MIC: 64 µM (≈ 21.9 µg/mL)

## CCCCCCCCCCCCCCCC(N)CNCC (configuration not stated)
[1]
  MIC: 16 µM (≈ 4.78 µg/mL)

## CCCCCCCCCCCCCCCCCC(COCc1ccccc1)NCCCCCC (configuration not stated)
[1]
  MIC: 64 µM (≈ 30.3 µg/mL)

## CCCCCCCCCCCCCCCCCC(CO)NCCCC (configuration not stated)
[1]
  MIC: 32 µM (≈ 11.4 µg/mL)

## CCCCCCCCCCCCCCCC(CN)NC(=O)OC(C)(C)C (configuration not stated)
[1]
  MIC: 17.6 µM (≈ 6.52 µg/mL)

## CCCCCCCCCCCCCCCC(CN=[N+]=[N-])NC(=O)OC(C)(C)C (configuration not stated)
[1]
  MIC: 16 µM (≈ 6.35 µg/mL)

## CCCCc1ccc(CCCCCCCC(CO)NC(=O)OC(C)(C)C)cc1 (configuration not stated)
[1]
  MIC: 16 µM (≈ 6.27 µg/mL)

## CCCCCCCCCCCCCCCC(CNCCCC)NC(=O)OC(C)(C)C (configuration not stated)
[1]
  MIC: 8 µM (≈ 3.41 µg/mL)

## CCCCCCCCCCCCCCCCCC(CO)NCC (configuration not stated)
[1]
  MIC: 16 µM (≈ 5.24 µg/mL)

## CCCCCCCCCCCCCCCC(CO)NCCCC (configuration not stated)
[1]
  MIC: 64 µM (≈ 21 µg/mL)

## CCCCCCCCCCCCCCCC(COCc1ccccc1)NCC (configuration not stated)
[1]
  MIC: 16 µM (≈ 6.23 µg/mL)

## CCCCCCCCCCCCCCCC(CO)NCC (configuration not stated)
[1]
  MIC: 32 µM (≈ 9.59 µg/mL)

## CCCCCCCCCCCCCCCC(CNCC(=O)OCC)NC(=O)OC(C)(C)C (configuration not stated)
[1]
  MIC: 32 µM (≈ 14.6 µg/mL)

## CCCCCCCCCCCCCCCC(CO)NCCCCCCCCCC (configuration not stated)
[1]
  MIC: 64 µM (≈ 26.4 µg/mL)

## CCCCCCCCCCCCCCCCCC(CO)N(CC)CC (configuration not stated)
[1]
  MIC: > 64 µM

## CCCCCCCCCCCCCCCC(COCc1ccccc1)NCCCCCC (configuration not stated)
[1]
  MIC: 64 µM (≈ 28.5 µg/mL)

## CCCCCCCCCCCCCCCCCCCC(COCc1ccccc1)NCC (configuration not stated)
[1]
  MIC: 16 µM (≈ 7.13 µg/mL)

## NCC[C@H](O)C(=O)N[C@@H]1C[C@H](N)[C@@H](O[C@H]2O[C@H](CN)[C@@H](O)[C@H](O)[C@H]2O)[C@H](O)[C@H]1O[C@H]1O[C@H](CO)[C@@H](O)[C@H](N)[C@H]1O [AMIKACIN]
[1]
  MIC: 0.8 µM and 0.63 µg/mL
[18]
  FIC: 0.25
[19]
  FIC: 0.125
[20]
  FIC: 0.25

## CC[C@@H](CO)NCCN[C@@H](CC)CO [ETHAMBUTOL]
[1]
  MIC: 28.8 µM and 8 µg/mL
[18]
  FIC: 0.25
[19]
  FIC: 1
[20]
  FIC: 0.25

## NNC(=O)c1ccncc1 [ISONIAZID]
[1]
  MIC: 934 µM and 128 µg/mL
[18]
  FIC: 0.5
[19]
  FIC: 0.125
[20]
  FIC: 0.125

## C[C@H]1COc2c(N3CCN(C)CC3)c(F)cc3c(=O)c(C(=O)O)cn1c23 [LEVOFLOXACIN ANHYDROUS]
[1]
  MIC: 5.5 µM and 2 µg/mL
[18]
  FIC: 0.5
[19]
  FIC: 0.5
[20]
  FIC: 0.5

## CO[C@H]1/C=C/O[C@@]2(C)Oc3c(C)c(O)c4c(O)c(c(/C=N/N5CCN(C)CC5)c(O)c4c3C2=O)NC(=O)/C(C)=C\C=C\[C@H](C)[C@H](O)[C@@H](C)[C@@H](O)[C@@H](C)[C@H](OC(C)=O)[C@@H]1C [RIFAMPIN]
[1]
  MIC: 78 µM and 64 µg/mL
[18]
  FIC: 0.25
[19]
  FIC: 0.063
[20]
  FIC: 0.031
